According to patent EP0804206B1, “ANTIFUNGAL AGENT CONTAINING CROTAMITON, AND SALICYCLIC ALDEHYDE” (Pierre Fabre Dermo-Cosmetique, priority 1995, dated 1996):

Tested on: Trichophyton mentagrophytes n° 8611
Assay: Minimal fungistatic concentration (CMF) of the products alone and combined, with FIC index
Type: cell-based
From the text: La synergie peut être mise-en évidence par le calcul des index FIC (Fractional Inhibitory Concentration) ou FBC (Fractional Bactericidal Concentration) des produits. Pour cela, on mesure la valeur de la CMF (ou concentration minimale fongistatique), ou de la CMϕ (ou concentration minimale fongicide), des principes actifs à tester vis-à-vis d'un type de germe.
Le FIC d'un produit A est défini comme : FICA (CMF du produit A en association)/(CMF du produit A seul) [formula]
L'association de deux antifongiques A et B est synergique si la somme FIC des rapports (FICA + FICB) est inférieure ou égale à 0,75.
On considère qu'il y a simple additivité pour des valeurs de FIC comprises entre 0,75 et 1,1, et indifférence dans l'intervalle compris entre 1,1 et 2; au-delà, l'association est notée antagoniste.
Après détermination des niveaux de concentrations minimales inhibitrices pour chaque souche, les associations entre les différents principes actifs sont testées. Le FIC Index =(CMI crotamiton associé)/(CMI crotamiton seul)+(CMI salicylaldéhyde associé)/(CMI salicylaldéhyde seul) [formula] est calculé.
Les activités antifongiques du crotamiton et du salicylaldéhyde ont été recherchées sur Trichophyton mentagrophytes.
Les concentrations minimales fongistatiques des produits seuls et associés sont présentées ici.
• * Souche • Trichophyton mentagrophytes n° 8611 • * Milieux de culture • Bouillon Sabouraud • Gélose Sabouraud • Eau distillée stérile • * Produits • Crotamiton (Borhinger, lot-209313) • Salicylaldéhyde Prolabo Rectapur encapsulé dans β cyclodextrines = formule aldéhydique
Les solutions-mère aqueuses des produits suivants ont été testées pour leur meilleure solubilité et sans artéfact d'activité antifongique : • Crotamiton : 0,2% dans 10% PEG 200 • Solution aqueuse à 10% aldhéhyde salicylique.
Les essais sont réalisés plusieurs fois car ces produits sont très volatils, rendant la lecture des tests très difficile. […]

Structure (SMILES): CC=CC(=O)N(CC)c1ccccc1C [Crotamiton, N-éthyl-O crotonotoluidide]
- fois moins de produit pour obtenir le même effet antifongique que les produits utilisés seuls (combined versus alone, formule aldéhydique at 10% aldehyde): 30 fois
- CMF = Concentrations Minimales Fongistatiques, Seul (product alone, T. mentagrophytes calibrated at 10^6 spores per ml): 0,1%
- CMF = Concentrations Minimales Fongistatiques, Associés (product in the binary combination Crotamiton - Formule aldéhydique, T. mentagrophytes 10^6 spores per ml): 0,003%
